Assay results published in the supplement of paper PMC6045584.
± gives the standard deviation of the averaged measurements.

How the values were obtained:
[1] = compound: C[C@H](CN(C)C)Oc1nc(Nc2cc3cccc(Cl)c3cn2)cnc1C#N; experiment: surviving fraction relative to DMSO-only wells; higher = less growth inhibition; details: exposure time: 5 days
Procedure, shortened: (§1)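 At 250–500 cells per well in 384-well plates, log-phase tumour cell lines were seeded and, 24 hours on, exposed continuously for five days to inhibitors at 0.5, 1, 5, 10, 50, 100, 500 and 1000 nM. Viability readout was CellTiter-Glo luminescence, reported as surviving fraction normalised to the median of DMSO-only wells.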

CABOZANTINIB = compound: COc1cc2nccc(Oc3ccc(NC(=O)C4(C(=O)Nc5ccc(F)cc5)CC4)cc3)c2cc1OC [CABOZANTINIB]; experiment: as above; details: exposure time: 5 days
Procedure, shortened: as §1

Test System SG28 HEADNECK has a surviving fraction ([1]; 0.5 nM) of 1.02 ± 0.033, a surviving fraction ([1]; 1 nM) of 1.15 ± 0.033 and a surviving fraction ([1]; 5 nM) of 0.996 ± 0.05. It also gave a surviving fraction ([1]; 10 nM) of 1.09 ± 0.19, a surviving fraction ([1]; 50 nM) of 1.04 ± 0.069 and a surviving fraction ([1]; 100 nM) of 1.22 ± 0.31. The surviving fraction ([1]; 500 nM) was 1.11 ± 0.018, the surviving fraction ([1]; 1000 nM) was 0.959 ± 0.18 and the surviving fraction (CABOZANTINIB; 0.5 nM) was 1.07 ± 0.047. The surviving fraction (CABOZANTINIB; 1 nM) was 1.12 ± 0.061, the surviving fraction (CABOZANTINIB; 5 nM) was 0.968 ± 0.099 and the surviving fraction (CABOZANTINIB; 10 nM) was 0.959 ± 0.023. The surviving fraction (CABOZANTINIB; 50 nM) was 1 ± 0.06, the surviving fraction (CABOZANTINIB; 100 nM) was 1 ± 0.16 and the surviving fraction (CABOZANTINIB; 500 nM) was 1.06 ± 0.058. The surviving fraction (CABOZANTINIB; 1000 nM) was 1.19 ± 0.26.

In the case of CME SYNOVIAL, the surviving fraction ([1]; 0.5 nM) is reported as 1.21 ± 0.15, the surviving fraction ([1]; 1 nM) is reported as 1.3 ± 0.16 and the surviving fraction ([1]; 5 nM) is reported as 1.28 ± 0.11. It also gave a surviving fraction ([1]; 10 nM) of 1.36 ± 0.18, a surviving fraction ([1]; 50 nM) of 1.32 ± 0.11 and a surviving fraction ([1]; 100 nM) of 1.47 ± 0.17. It also gave a surviving fraction ([1]; 500 nM) of 1.14 ± 0.059, a surviving fraction ([1]; 1000 nM) of 1.02 ± 0.15 and a surviving fraction (CABOZANTINIB; 0.5 nM) of 1.23 ± 0.11. The surviving fraction (CABOZANTINIB; 1 nM) was 1.24 ± 0.16, the surviving fraction (CABOZANTINIB; 5 nM) was 1.24 ± 0.11 and the surviving fraction (CABOZANTINIB; 10 nM) was 1.21 ± 0.042. For the same test system, the surviving fraction (CABOZANTINIB; 50 nM) was 1.2 ± 0.046, the surviving fraction (CABOZANTINIB; 100 nM) was 1.19 ± 0.15 and the surviving fraction (CABOZANTINIB; 500 nM) was 1.1 ± 0.071. It also gave a surviving fraction (CABOZANTINIB; 1000 nM) of 1.01 ± 0.12.

With MDAMB361 BREAST the surviving fraction ([1]; 0.5 nM) was 0.818 ± 0.021, the surviving fraction ([1]; 1 nM) was 0.744 ± 0.048 and the surviving fraction ([1]; 5 nM) was 0.752 ± 0.058. It also gave a surviving fraction ([1]; 10 nM) of 0.775 ± 0.053, a surviving fraction ([1]; 50 nM) of 0.724 ± 0.03 and a surviving fraction ([1]; 100 nM) of 0.547 ± 0.056. The surviving fraction ([1]; 500 nM) was 0.481 ± 0.02, the surviving fraction ([1]; 1000 nM) was 0.488 ± 0.04 and the surviving fraction (CABOZANTINIB; 0.5 nM) was 0.842 ± 0.099. The surviving fraction (CABOZANTINIB; 1 nM) was 0.796 ± 0.056, the surviving fraction (CABOZANTINIB; 5 nM) was 0.816 ± 0.042 and the surviving fraction (CABOZANTINIB; 10 nM) was 0.844 ± 0.06. The surviving fraction (CABOZANTINIB; 50 nM) was 0.93 ± 0.081, the surviving fraction (CABOZANTINIB; 100 nM) was 0.887 ± 0.1 and the surviving fraction (CABOZANTINIB; 500 nM) was 0.903 ± 0.054. For the same test system, the surviving fraction (CABOZANTINIB; 1000 nM) was 0.89 ± 0.12.

Test System HCC202 BREAST has a surviving fraction ([1]; 0.5 nM) of 1.08 ± 0.39, a surviving fraction ([1]; 1 nM) of 1.03 ± 0.41 and a surviving fraction ([1]; 5 nM) of 1.22 ± 0.065. It also gave a surviving fraction ([1]; 10 nM) of 1.01 ± 0.022, a surviving fraction ([1]; 50 nM) of 0.984 ± 0.052 and a surviving fraction ([1]; 100 nM) of 0.886 ± 0.34. It also gave a surviving fraction ([1]; 500 nM) of 0.413 ± 0.071, a surviving fraction ([1]; 1000 nM) of 0.376 ± 0.04 and a surviving fraction (CABOZANTINIB; 0.5 nM) of 1.12 ± 0.14. It also gave a surviving fraction (CABOZANTINIB; 1 nM) of 1.11 ± 0.079, a surviving fraction (CABOZANTINIB; 5 nM) of 1.2 ± 0.031 and a surviving fraction (CABOZANTINIB; 10 nM) of 1.15 ± 0.17. It also gave a surviving fraction (CABOZANTINIB; 50 nM) of 1.1 ± 0.28, a surviving fraction (CABOZANTINIB; 100 nM) of 1.13 ± 0.065 and a surviving fraction (CABOZANTINIB; 500 nM) of 1.31 ± 0.12. The surviving fraction (CABOZANTINIB; 1000 nM) was 1.09 ± 0.098.

For MCF7 BREAST, the surviving fraction ([1]; 0.5 nM) was 0.896 ± 0.012, the surviving fraction ([1]; 1 nM) was 0.87 ± 0.042 and the surviving fraction ([1]; 5 nM) was 0.873 ± 0.069. It also gave a surviving fraction ([1]; 10 nM) of 0.881 ± 0.063, a surviving fraction ([1]; 50 nM) of 0.904 ± 0.026 and a surviving fraction ([1]; 100 nM) of 0.813 ± 0.046. For the same test system, the surviving fraction ([1]; 500 nM) was 0.751 ± 0.016, the surviving fraction ([1]; 1000 nM) was 0.697 ± 0.023 and the surviving fraction (CABOZANTINIB; 0.5 nM) was 0.907 ± 0.019. The surviving fraction (CABOZANTINIB; 1 nM) was 0.836 ± 0.012, the surviving fraction (CABOZANTINIB; 5 nM) was 0.852 ± 0.029 and the surviving fraction (CABOZANTINIB; 10 nM) was 0.863 ± 0.033. For the same test system, the surviving fraction (CABOZANTINIB; 50 nM) was 0.889 ± 0.015, the surviving fraction (CABOZANTINIB; 100 nM) was 0.933 ± 0.032 and the surviving fraction (CABOZANTINIB; 500 nM) was 0.88 ± 0.066. It also gave a surviving fraction (CABOZANTINIB; 1000 nM) of 0.91 ± 0.075.

With CAL72 BONE the surviving fraction ([1]; 0.5 nM) was 1.06 ± 0.1, the surviving fraction ([1]; 1 nM) was 1.08 ± 0.13 and the surviving fraction ([1]; 5 nM) was 1.06 ± 0.099. It also gave a surviving fraction ([1]; 10 nM) of 1.03 ± 0.12, a surviving fraction ([1]; 50 nM) of 1.09 ± 0.1 and a surviving fraction ([1]; 100 nM) of 0.981 ± 0.12. The surviving fraction ([1]; 500 nM) was 0.402 ± 0.076, the surviving fraction ([1]; 1000 nM) was 0.137 ± 0.037 and the surviving fraction (CABOZANTINIB; 0.5 nM) was 1.03 ± 0.082. It also gave a surviving fraction (CABOZANTINIB; 1 nM) of 1.03 ± 0.093, a surviving fraction (CABOZANTINIB; 5 nM) of 1.07 ± 0.11 and a surviving fraction (CABOZANTINIB; 10 nM) of 1.06 ± 0.079. For the same test system, the surviving fraction (CABOZANTINIB; 50 nM) was 1.09 ± 0.095, the surviving fraction (CABOZANTINIB; 100 nM) was 1.14 ± 0.019 and the surviving fraction (CABOZANTINIB; 500 nM) was 1.11 ± 0.12. For the same test system, the surviving fraction (CABOZANTINIB; 1000 nM) was 1.08 ± 0.11.

In the case of HU09 BONE, the surviving fraction ([1]; 0.5 nM) is reported as 1.05 ± 0.11, the surviving fraction ([1]; 1 nM) is reported as 0.964 ± 0.017 and the surviving fraction ([1]; 5 nM) is reported as 1.02 ± 0.086. It also gave a surviving fraction ([1]; 10 nM) of 1.02 ± 0.092, a surviving fraction ([1]; 50 nM) of 1.07 ± 0.13 and a surviving fraction ([1]; 100 nM) of 0.903 ± 0.12. It also gave a surviving fraction ([1]; 500 nM) of 0.437 ± 0.063, a surviving fraction ([1]; 1000 nM) of 0.261 ± 0.054 and a surviving fraction (CABOZANTINIB; 0.5 nM) of 0.945 ± 0.084. The surviving fraction (CABOZANTINIB; 1 nM) was 0.999 ± 0.11, the surviving fraction (CABOZANTINIB; 5 nM) was 0.978 ± 0.055 and the surviving fraction (CABOZANTINIB; 10 nM) was 1.02 ± 0.13. For the same test system, the surviving fraction (CABOZANTINIB; 50 nM) was 0.885 ± 0.096, the surviving fraction (CABOZANTINIB; 100 nM) was 0.638 ± 0.06 and the surviving fraction (CABOZANTINIB; 500 nM) was 0.452 ± 0.043. It also gave a surviving fraction (CABOZANTINIB; 1000 nM) of 0.338 ± 0.034.

JIMT1 BREAST was tested, and the surviving fraction ([1]; 0.5 nM) was 0.979 ± 0.019, the surviving fraction ([1]; 1 nM) was 0.966 ± 0.042 and the surviving fraction ([1]; 5 nM) was 1.03 ± 0.01. It also gave a surviving fraction ([1]; 10 nM) of 0.988 ± 0.043, a surviving fraction ([1]; 50 nM) of 0.916 ± 0.053 and a surviving fraction ([1]; 100 nM) of 0.467 ± 0.025. The surviving fraction ([1]; 500 nM) was 0.0688 ± 0.0064, the surviving fraction ([1]; 1000 nM) was 0.0615 ± 0.0039 and the surviving fraction (CABOZANTINIB; 0.5 nM) was 1.03 ± 0.049. For the same test system, the surviving fraction (CABOZANTINIB; 1 nM) was 1.04 ± 0.025, the surviving fraction (CABOZANTINIB; 5 nM) was 1.07 ± 0.029 and the surviving fraction (CABOZANTINIB; 10 nM) was 1.04 ± 0.049. The surviving fraction (CABOZANTINIB; 50 nM) was 1.13 ± 0.048, the surviving fraction (CABOZANTINIB; 100 nM) was 1.1 ± 0.033 and the surviving fraction (CABOZANTINIB; 500 nM) was 1.04 ± 0.043. For the same test system, the surviving fraction (CABOZANTINIB; 1000 nM) was 1 ± 0.039.

In the case of SG31 HEADNECK, the surviving fraction ([1]; 0.5 nM) is reported as 1.04 ± 0.091, the surviving fraction ([1]; 1 nM) is reported as 1.08 ± 0.072 and the surviving fraction ([1]; 5 nM) is reported as 1.1 ± 0.28. The surviving fraction ([1]; 10 nM) was 1.07 ± 0.12, the surviving fraction ([1]; 50 nM) was 1.07 ± 0.16 and the surviving fraction ([1]; 100 nM) was 1.07 ± 0.11. For the same test system, the surviving fraction ([1]; 500 nM) was 0.982 ± 0.14, the surviving fraction ([1]; 1000 nM) was 0.967 ± 0.032 and the surviving fraction (CABOZANTINIB; 0.5 nM) was 1.1 ± 0.21. The surviving fraction (CABOZANTINIB; 1 nM) was 1.07 ± 0.2, the surviving fraction (CABOZANTINIB; 5 nM) was 0.981 ± 0.073 and the surviving fraction (CABOZANTINIB; 10 nM) was 0.97 ± 0.14. The surviving fraction (CABOZANTINIB; 50 nM) was 1.07 ± 0.24, the surviving fraction (CABOZANTINIB; 100 nM) was 0.97 ± 0.07 and the surviving fraction (CABOZANTINIB; 500 nM) was 1.1 ± 0.067. It also gave a surviving fraction (CABOZANTINIB; 1000 nM) of 1.11 ± 0.082.

“JURKAT HAEMATOPOIETIC AND LYMPHOID TISSUE” gave a surviving fraction ([1]; 0.5 nM) of 1.08 ± 0.028, a surviving fraction ([1]; 1 nM) of 1.07 ± 0.013 and a surviving fraction ([1]; 5 nM) of 1.05 ± 0.015. The surviving fraction ([1]; 10 nM) was 1.01 ± 0.021, the surviving fraction ([1]; 50 nM) was 0.927 ± 0.038 and the surviving fraction ([1]; 100 nM) was 0.948 ± 0.02. For the same test system, the surviving fraction ([1]; 500 nM) was 0.619 ± 0.029, the surviving fraction ([1]; 1000 nM) was 0.103 ± 0.014 and the surviving fraction (CABOZANTINIB; 0.5 nM) was 1.07 ± 0.015. For the same test system, the surviving fraction (CABOZANTINIB; 1 nM) was 1.03 ± 0.014, the surviving fraction (CABOZANTINIB; 5 nM) was 1.05 ± 0.042 and the surviving fraction (CABOZANTINIB; 10 nM) was 1.05 ± 0.022. For the same test system, the surviving fraction (CABOZANTINIB; 50 nM) was 0.998 ± 0.036, the surviving fraction (CABOZANTINIB; 100 nM) was 0.985 ± 0.017 and the surviving fraction (CABOZANTINIB; 500 nM) was 1.04 ± 0.021. It also gave a surviving fraction (CABOZANTINIB; 1000 nM) of 0.972 ± 0.0044.
